Assays:
Assay type in all cases: biochemical
[1] = target: T1, ALK(G1202R) (Homo sapiens, UniProt Q9UM73, G1202R); assay: HTRF KinEASE-TK kinase activity inhibition assay, ALK(G1202R); conditions: ATP 10 µM
T1 construct: purchased SignalChem A19-12HG-10
Source text: (§1) The following method was used to determine the inhibition degrees of the compounds of the present invention on the activities of recombinant human ALK(G1202R) and ALK(L1196M, G1202R) kinases in vitro. In this method, HTRF®KinEASE-TK tyrosine kinase kit (article No. 62TK0PEB) of Cisbio company was used, the principle of the kit was based on time-resolved fluorescence resonance energy transfer (TF-FRET), and the inhibitions of the compounds on the activities of the ALK(G1202R) and ALK(L1196M, G1202R) kinases were reflected by determining a phosphorylation degree of a biotinylated polypeptide substrate mediated by ALK kinase. For detailed experimental operation, please refer to the kit instruction. […]
(§2) The experimental flow was briefly described as follows: a test compound was first dissolved in DMSO to prepare a storage solution, and then diluted in gradient with a buffer provided in the kit. […] An ATP Km value concentration of each ALK protein was determined by using an ATP solution diluted in gradient (Sangon Biotech (Shanghai) Co., Ltd., A600311). […] After incubation, fluorescence intensity values of each well at an excitation wavelength of 304 nm, and emission wavelengths of 620 nm and 665 nM were determined in a TF-FRET mode on a microplate reader, and the fluorescence intensity ratio 665/620 of each hole was calculated. […]

[2] = target: T2, ROS1 (Homo sapiens, UniProt P08922); assay: HTRF KinEASE-TK kinase activity inhibition assay, ROS1; conditions: ATP 1 µM
T2 construct: purchased SignalChem R14-11G-10
Source text: as §1, with “activity” for “activities”, “ROS1 kinase” for “ALK(G1202R) and ALK(L1196M, G1202R) kinases”, “inhibition” for “inhibitions”, “ROS1 kinase was” for “ALK(G1202R) and ALK(L1196M, G1202R) kinases were”, “ROS1” for “ALK”
as §2, with “ROS1” for “ALK”

[3] = target: T3, ROS1(G2032R) (Homo sapiens, UniProt P08922, G2032R); assay: HTRF KinEASE-TK kinase activity inhibition assay, ROS1(G2032R); conditions: ATP 0.5 µM
T3 construct: purchased SignalChem R14-12BG-10
Source text: as §1, with “activity” for “activities”, “ROS1 kinase” for “ALK(G1202R) and ALK(L1196M, G1202R) kinases”, “inhibition” for “inhibitions”, “ROS1 kinase was” for “ALK(G1202R) and ALK(L1196M, G1202R) kinases were”, “ROS1” for “ALK”
as §2, with “ROS1” for “ALK”

[4] = target: T4, ALK(L1196M, G1202R) (Homo sapiens, UniProt Q9UM73, G1202R/L1196M); assay: HTRF KinEASE-TK kinase activity inhibition assay, ALK(L1196M, G1202R); conditions: ATP 25 µM
T4 construct: purchased SignalChem A19-12NG-10
Source text: as §1, §2

T3 sequence (P08922 28-2347 G2032R): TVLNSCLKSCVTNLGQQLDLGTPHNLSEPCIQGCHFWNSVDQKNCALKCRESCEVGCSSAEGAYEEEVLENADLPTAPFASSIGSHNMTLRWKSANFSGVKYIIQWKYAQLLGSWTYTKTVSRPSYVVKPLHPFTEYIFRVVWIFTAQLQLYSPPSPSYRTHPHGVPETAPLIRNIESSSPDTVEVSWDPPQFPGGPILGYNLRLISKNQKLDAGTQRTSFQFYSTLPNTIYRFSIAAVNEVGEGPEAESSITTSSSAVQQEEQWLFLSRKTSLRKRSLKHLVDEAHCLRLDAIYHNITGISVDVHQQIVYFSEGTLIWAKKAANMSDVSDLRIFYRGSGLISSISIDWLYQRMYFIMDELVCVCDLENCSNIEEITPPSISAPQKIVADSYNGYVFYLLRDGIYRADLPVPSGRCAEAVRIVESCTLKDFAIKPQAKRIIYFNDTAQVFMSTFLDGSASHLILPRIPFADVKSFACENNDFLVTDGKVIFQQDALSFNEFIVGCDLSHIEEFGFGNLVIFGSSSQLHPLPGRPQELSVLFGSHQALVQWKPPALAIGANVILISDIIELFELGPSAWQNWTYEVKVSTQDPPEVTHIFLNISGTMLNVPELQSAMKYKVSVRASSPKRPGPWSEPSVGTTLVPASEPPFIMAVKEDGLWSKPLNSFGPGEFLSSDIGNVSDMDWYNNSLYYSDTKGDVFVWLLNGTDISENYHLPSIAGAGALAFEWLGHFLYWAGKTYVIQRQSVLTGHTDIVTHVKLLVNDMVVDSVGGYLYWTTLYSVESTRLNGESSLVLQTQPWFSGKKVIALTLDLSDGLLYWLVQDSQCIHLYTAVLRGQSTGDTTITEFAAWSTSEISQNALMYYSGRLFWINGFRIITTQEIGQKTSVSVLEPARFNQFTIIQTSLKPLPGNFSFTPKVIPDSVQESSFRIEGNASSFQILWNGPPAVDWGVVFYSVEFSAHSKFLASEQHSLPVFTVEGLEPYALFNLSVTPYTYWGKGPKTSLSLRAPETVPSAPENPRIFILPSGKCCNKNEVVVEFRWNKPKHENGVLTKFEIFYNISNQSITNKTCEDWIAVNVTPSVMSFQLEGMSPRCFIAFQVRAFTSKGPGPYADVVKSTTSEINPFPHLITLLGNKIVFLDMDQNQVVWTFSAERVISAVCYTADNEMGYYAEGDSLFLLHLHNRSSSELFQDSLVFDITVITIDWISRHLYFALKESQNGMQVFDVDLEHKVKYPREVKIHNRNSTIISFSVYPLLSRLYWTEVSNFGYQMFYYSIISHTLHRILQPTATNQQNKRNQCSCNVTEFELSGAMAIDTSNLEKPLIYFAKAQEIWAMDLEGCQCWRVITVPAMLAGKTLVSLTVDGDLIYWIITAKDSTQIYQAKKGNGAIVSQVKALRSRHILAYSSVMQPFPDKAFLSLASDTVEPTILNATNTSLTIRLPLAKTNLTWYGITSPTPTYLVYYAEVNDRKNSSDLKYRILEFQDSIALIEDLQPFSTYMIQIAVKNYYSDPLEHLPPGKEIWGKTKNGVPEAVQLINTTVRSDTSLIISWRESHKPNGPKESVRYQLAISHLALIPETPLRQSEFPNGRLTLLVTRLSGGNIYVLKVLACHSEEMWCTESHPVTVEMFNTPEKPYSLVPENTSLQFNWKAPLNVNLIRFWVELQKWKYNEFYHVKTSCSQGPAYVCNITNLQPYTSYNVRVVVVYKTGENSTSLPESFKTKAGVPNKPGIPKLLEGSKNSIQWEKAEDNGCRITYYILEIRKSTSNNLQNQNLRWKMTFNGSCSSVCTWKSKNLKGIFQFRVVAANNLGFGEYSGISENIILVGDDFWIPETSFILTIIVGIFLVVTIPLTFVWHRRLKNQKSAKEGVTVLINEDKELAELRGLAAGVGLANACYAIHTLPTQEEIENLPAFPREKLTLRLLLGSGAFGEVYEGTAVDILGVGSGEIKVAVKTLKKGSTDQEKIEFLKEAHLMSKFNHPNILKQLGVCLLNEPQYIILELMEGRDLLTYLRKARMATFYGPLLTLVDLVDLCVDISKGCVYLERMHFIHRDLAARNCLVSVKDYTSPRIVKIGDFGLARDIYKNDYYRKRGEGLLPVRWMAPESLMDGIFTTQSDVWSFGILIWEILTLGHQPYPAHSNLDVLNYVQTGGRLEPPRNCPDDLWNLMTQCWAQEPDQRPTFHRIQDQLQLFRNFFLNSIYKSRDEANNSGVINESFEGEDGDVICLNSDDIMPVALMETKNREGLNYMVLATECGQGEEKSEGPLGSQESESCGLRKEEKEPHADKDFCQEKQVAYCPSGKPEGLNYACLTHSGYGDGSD
T4 sequence (Q9UM73 19-1620 L1196M/G1202R): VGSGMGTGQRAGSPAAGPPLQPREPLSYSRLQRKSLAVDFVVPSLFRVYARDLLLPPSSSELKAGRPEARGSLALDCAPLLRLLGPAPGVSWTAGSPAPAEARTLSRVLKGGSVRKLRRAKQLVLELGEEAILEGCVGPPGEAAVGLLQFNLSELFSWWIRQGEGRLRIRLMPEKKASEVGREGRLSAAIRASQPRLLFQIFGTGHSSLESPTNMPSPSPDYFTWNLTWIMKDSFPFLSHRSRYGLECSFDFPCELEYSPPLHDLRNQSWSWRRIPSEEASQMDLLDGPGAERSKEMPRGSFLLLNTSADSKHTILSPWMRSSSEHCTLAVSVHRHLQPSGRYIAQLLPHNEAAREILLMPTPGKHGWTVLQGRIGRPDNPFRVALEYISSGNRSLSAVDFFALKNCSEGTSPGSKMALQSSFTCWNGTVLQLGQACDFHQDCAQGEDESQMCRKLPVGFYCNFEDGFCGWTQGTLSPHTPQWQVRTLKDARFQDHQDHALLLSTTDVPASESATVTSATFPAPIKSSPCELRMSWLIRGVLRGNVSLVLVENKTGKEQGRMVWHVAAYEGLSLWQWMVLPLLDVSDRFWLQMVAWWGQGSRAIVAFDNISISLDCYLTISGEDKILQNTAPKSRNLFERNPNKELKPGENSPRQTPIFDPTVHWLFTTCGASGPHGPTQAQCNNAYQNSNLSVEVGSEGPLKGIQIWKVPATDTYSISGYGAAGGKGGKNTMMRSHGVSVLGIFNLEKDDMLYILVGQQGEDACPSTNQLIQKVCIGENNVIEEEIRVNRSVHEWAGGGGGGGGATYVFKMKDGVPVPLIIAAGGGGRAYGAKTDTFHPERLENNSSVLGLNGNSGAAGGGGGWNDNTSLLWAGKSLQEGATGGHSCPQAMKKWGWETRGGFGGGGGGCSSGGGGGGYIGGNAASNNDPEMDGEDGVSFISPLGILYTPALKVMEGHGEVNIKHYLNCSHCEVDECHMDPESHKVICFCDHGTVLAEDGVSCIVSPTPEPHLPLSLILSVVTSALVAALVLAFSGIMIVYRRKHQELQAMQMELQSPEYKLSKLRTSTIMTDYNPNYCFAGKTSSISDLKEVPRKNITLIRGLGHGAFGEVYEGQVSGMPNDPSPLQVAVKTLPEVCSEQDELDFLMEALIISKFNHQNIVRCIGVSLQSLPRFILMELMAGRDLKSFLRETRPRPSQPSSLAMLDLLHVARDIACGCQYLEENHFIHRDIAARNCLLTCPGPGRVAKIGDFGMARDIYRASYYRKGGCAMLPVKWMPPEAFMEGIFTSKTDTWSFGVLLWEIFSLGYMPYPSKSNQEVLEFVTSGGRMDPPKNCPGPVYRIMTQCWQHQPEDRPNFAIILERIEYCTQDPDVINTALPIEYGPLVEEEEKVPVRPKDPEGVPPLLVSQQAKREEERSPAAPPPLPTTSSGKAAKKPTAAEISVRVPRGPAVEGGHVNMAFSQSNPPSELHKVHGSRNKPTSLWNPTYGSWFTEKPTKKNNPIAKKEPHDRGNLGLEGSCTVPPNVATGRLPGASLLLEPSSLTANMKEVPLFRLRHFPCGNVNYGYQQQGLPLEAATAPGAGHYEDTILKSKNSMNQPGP
T1 sequence (Q9UM73 19-1620 G1202R): as the sequence (Q9UM73 19-1620 L1196M/G1202R) above, with M1178L counted along it
T2 sequence (P08922 28-2347): as the sequence (P08922 28-2347 G2032R) above, with R2005G counted along it

IC50 [1] [nM]	IC50 [2] [nM]	IC50 [3] [nM]	IC50 [4] [nM]	Compound
13.6	0.84	2.11	24.2	C[C@H]1Nc2ccn3nc(N)c(c3n2)C(=O)NC[C@@]2(C)Cc3cc(F)cc1c3O2 [Example 25, (3R,11R)-16-amino-6-fluoro-3,11-dimethyl-10-oxa-2,13,17,18,21-pentaazapentacyclo[13.5.2.1^8,11.0^4,9. 0^18,22]tricosa-1(21),4,6,8,15(22),16,19-heptaen-14-one]
13.2	0.36	0.34	20.7	C[C@H]1Nc2ccn3ncc(c3n2)C(=O)NC[C@@]2(C)Cc3cc(F)cc1c3O2 [Example 8, (3R,11R)-6-fluoro-3,11-dimethyl-10-oxa-2,13,17,1 8,21-pentaazapentacyclo[13.5.2.1^8,11.0^4,9.0^18,22]tric osa-1(21),4,6,8,15(22),16,19-heptaen-14-one]

From patent publication EP3974434B1, “MACROLIDE DERIVATIVES, PREPARATION METHOD AND APPLICATION THEREOF” (Zhejiang Hisun Pharmaceutical Co., Ltd., priority 2019, dated 2020)
